Tests used:
TANK-2 enzyme = target: T1, TANK-2 enzyme (Homo sapiens, UniProt Q9H2K2); assay: In vitro Scintillation Proximity Assay (SPA) for TANK-2 inhibitory activity; format: biochemical; details: read-out: in vitro SPA assay TANK-2 pIC50 (converted)
T1 construct: made in house
T1 sequence (Q9H2K2 1-1166): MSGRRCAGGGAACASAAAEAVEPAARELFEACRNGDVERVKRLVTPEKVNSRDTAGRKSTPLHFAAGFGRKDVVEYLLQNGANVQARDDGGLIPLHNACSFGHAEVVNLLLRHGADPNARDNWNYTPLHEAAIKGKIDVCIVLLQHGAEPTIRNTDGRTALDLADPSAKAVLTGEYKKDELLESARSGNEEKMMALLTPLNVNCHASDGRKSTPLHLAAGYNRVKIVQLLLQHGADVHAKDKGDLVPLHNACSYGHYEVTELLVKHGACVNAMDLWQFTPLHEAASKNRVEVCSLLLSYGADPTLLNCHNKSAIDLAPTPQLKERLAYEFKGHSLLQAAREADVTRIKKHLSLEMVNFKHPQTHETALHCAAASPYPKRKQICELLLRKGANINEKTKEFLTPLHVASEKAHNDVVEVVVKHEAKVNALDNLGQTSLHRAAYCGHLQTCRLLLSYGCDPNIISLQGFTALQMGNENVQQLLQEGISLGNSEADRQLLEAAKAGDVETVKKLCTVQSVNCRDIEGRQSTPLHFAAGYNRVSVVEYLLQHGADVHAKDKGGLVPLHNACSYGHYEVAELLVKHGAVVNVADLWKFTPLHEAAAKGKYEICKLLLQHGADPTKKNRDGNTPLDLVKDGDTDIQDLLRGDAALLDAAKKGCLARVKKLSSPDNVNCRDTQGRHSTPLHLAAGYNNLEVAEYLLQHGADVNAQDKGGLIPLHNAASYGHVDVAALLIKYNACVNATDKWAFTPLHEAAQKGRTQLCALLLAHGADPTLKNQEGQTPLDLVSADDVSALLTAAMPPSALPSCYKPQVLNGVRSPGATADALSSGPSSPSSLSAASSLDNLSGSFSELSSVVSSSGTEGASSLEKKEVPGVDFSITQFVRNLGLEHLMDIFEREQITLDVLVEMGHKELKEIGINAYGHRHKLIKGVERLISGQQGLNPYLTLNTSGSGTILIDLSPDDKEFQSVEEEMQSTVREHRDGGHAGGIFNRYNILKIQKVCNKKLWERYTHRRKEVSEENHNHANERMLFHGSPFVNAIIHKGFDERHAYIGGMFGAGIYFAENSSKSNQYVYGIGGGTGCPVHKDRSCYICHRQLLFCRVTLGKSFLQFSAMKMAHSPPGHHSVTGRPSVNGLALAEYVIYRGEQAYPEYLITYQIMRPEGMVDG
Outline: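 TANK-2 (8 μg/ml final) auto-poly(ADP-ribosyl)ation with [3H]-NAD+/NAD donor was run in Ni flash plates in Tris/HCl pH 7.4 buffer with DTT and MgCl2, 120 min at room temperature, then stopped with excess NAD and scintillation-counted. Blank-corrected cpm was expressed as % of enzyme control, and IC50 was linearly interpolated and reported as pIC50.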

PC3 cells = assay: EB1 Comet (microtubule disruption) assay; format: cell-based, human; details: 1 hour treatment; for minimal effective concentration: Homo sapiens, PC-3, 1 h, read-out: EB1 pLAC (converted)
Outline: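 PC3 human prostate cancer cells exposed to compound for 1 h at 37 °C (0.6% DMSO final), methanol-fixed, immunostained for Eb1 and imaged at 20×. Value is the lowest active concentration (LAC): the concentration at which Eb1 foci are absent in at least 50% of treated cells.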

IC50 (TANK-2 enzyme)	Structure (SMILES)	minimal effective concentration (PC3 cells)	EB1 pLAC (PC3 cells)
25.1 nM	CCc1cc2ccc(C(C)(C#N)Cc3cccc(F)c3)cc2[nH]c1=O (centres unmarked) [Compound 112]	1 µM	–
20 nM	CCc1cc2ccc(C(C)(C#N)Cc3cccc(OC)c3)cc2[nH]c1=O (centres unmarked) [Compound 113]	> 10 µM	–
501 nM	CCc1cc2ccc(C(C)(C#N)Cc3ccc(OC(F)(F)F)cc3)cc2[nH]c1=O (centres unmarked) [Compound 114]	1 µM	–
79.4 nM	CCc1cc2ccc(C(C)(C#N)Cc3c(F)c(F)c(F)c(F)c3F)cc2[nH]c1=O (centres unmarked) [Compound 116]	0.316 µM	–
31.6 nM	CCc1cc2ccc(C(C)(C#N)Cc3ccc(Br)cc3)cc2[nH]c1=O (centres unmarked) [Compound 118]	3.16 µM	–
31.6 nM	CCc1cc2ccc(C(C)(C#N)Cc3ccc(OC)cc3)cc2[nH]c1=O (centres unmarked) [Compound 119]	3.16 µM	–
50.1 nM	CCc1cc2ccc(C(C)(C#N)Cc3cccc(F)c3F)cc2[nH]c1=O (centres unmarked) [Compound 120]	0.316 µM	–
79.4 nM	CCc1cc2ccc(C(C)(C#N)Cc3cccc(Cl)c3Cl)cc2[nH]c1=O (centres unmarked) [Compound 121]	0.316 µM	–
100 nM	CCc1cc2ccc(C(C)(C#N)Cc3ccc4ccccc4c3)cc2[nH]c1=O (centres unmarked) [Compound 122]	1 µM	–
100 nM	CCc1cc2ccc(C(C)(C#N)Cc3ccc4c(c3)nnn4C)cc2[nH]c1=O (centres unmarked) [Compound 123]	3.16 µM	–
100 nM	CCc1cc2ccc(C(C)(C#N)Cc3ccc4c(c3)OCCO4)cc2[nH]c1=O (centres unmarked) [Compound 124]	1 µM	–
100 nM	CCc1cc2ccc(C(C)(C#N)Cc3cc(C)cc(C)c3)cc2[nH]c1=O (centres unmarked) [Compound 125]	0.1 µM	–
100 nM	CCc1cc2ccc(C(C)(C#N)Cc3cc(F)cc(Cl)c3)cc2[nH]c1=O (centres unmarked) [Compound 126]	0.316 µM	–
398 nM	CCc1cc2ccc(C(C)(C#N)Cc3cc(F)cc(C(F)(F)F)c3)cc2[nH]c1=O (centres unmarked) [Compound 127]	1 µM	–
158 nM	CCc1cc2ccc(C(C)(C#N)Cc3cc(F)cc(F)c3)cc2[nH]c1=O (centres unmarked) [Compound 128]	–	7.5
126 nM	CCc1cc2ccc(C(C)(C#N)Cc3cccc(S(C)(=O)=O)c3)cc2[nH]c1=O (centres unmarked) [Compound 129]	1 µM	–
79.4 nM	CCc1cc2ccc(C(C)(C#N)Cc3cccc(Cl)c3F)cc2[nH]c1=O (centres unmarked) [Compound 130]	0.1 µM	–
63.1 nM	CCc1cc2ccc(C(C)(C#N)Cc3cccc(C)c3F)cc2[nH]c1=O (centres unmarked) [Compound 132]	0.316 µM	–
126 nM	CCc1cc2ccc(C(C)(C#N)Cc3cccc(C(F)(F)F)c3F)cc2[nH]c1=O (centres unmarked) [Compound 134]	1 µM	–
50.1 nM	CCc1cc2ccc(C(C)(C#N)Cc3c(Cl)cccc3Cl)cc2[nH]c1=O (centres unmarked) [Compound 135]	1 µM	–

IC50 (TANK-2 enzyme)	Structure (SMILES)	minimal effective concentration (PC3 cells)	EB1 pLAC (PC3 cells)
50.1 nM	CCc1cc2ccc(C(C)(C#N)Cc3c(Cl)cccc3Br)cc2[nH]c1=O (centres unmarked) [Compound 136]	1 µM	–
63.1 nM	CCc1cc2ccc(C(C)(C#N)Cc3ccc(F)cc3F)cc2[nH]c1=O (centres unmarked) [Compound 137]	1 µM	–
63.1 nM	CCc1cc2ccc(C(C)(C#N)Cc3c(F)cccc3F)cc2[nH]c1=O (centres unmarked) [Compound 138]	1 µM	–
79.4 nM	CCc1cc2ccc(C(C)(C#N)Cc3ccc(F)cc3Br)cc2[nH]c1=O (centres unmarked) [Compound 139]	0.316 µM	–
126 nM	CCc1cc2ccc(C(C)(C#N)Cc3cccc(Cl)c3)cc2[nH]c1=O (centres unmarked) [Compound 140]	0.1 µM	–
126 nM	CCc1cc2ccc(C(C)(C#N)Cc3cc(Cl)cc(Cl)c3)cc2[nH]c1=O (centres unmarked) [Compound 141]	0.1 µM	–
158 nM	CCOc1ccccc1OCCC(C)(C#N)c1ccc2cc(CC)c(=O)[nH]c2c1 (centres unmarked) [Compound 142]	1 µM	–
158 nM	CCc1cc2ccc(C(C)(C#N)CCOc3cccc(C)c3)cc2[nH]c1=O (centres unmarked) [Compound 143]	1 µM	–
100 nM	CCc1cc2ccc(C(C)(C#N)CCOc3ccc(F)cc3)cc2[nH]c1=O (centres unmarked) [Compound 144]	0.316 µM	–
50.1 nM	CCc1cc2ccc(C(C)(C#N)CCOc3ccccc3)cc2[nH]c1=O (centres unmarked) [Compound 145]	1 µM	–
79.4 nM	CCc1cc2ccc(C(C)(C#N)CCOc3ccc(OC)cc3)cc2[nH]c1=O (centres unmarked) [Compound 147]	1 µM	–
100 nM	CCc1cc2ccc(C(C)(C#N)CCOc3ccccc3C)cc2[nH]c1=O (centres unmarked) [Compound 148]	0.316 µM	–
200 nM	CCc1cc2ccc(C(C)(C#N)CCOc3cccc(Cl)c3)cc2[nH]c1=O (centres unmarked) [Compound 151]	1 µM	–
200 nM	CCc1cc2ccc(C(C)(C#N)CCOc3ccc(Cl)cc3Cl)cc2[nH]c1=O (centres unmarked) [Compound 154]	0.1 µM	–
398 nM	CCc1cc2ccc(C(C)(C#N)CC3CN(C)c4ccccc4O3)cc2[nH]c1=O (centres unmarked) [Compound 156]	1 µM	–
316 nM	CCc1cc2ccc(C(C)(C#N)CCOc3ccc4ccccc4c3)cc2[nH]c1=O (centres unmarked) [Compound 157]	0.1 µM	–
501 nM	CCc1cc2ccc(C(C)(C#N)CCOc3cccc4ccccc34)cc2[nH]c1=O (centres unmarked) [Compound 158]	0.316 µM	–
316 nM	CCc1cc2ccc(C(C)(C#N)CCOc3ccc(Br)cc3)cc2[nH]c1=O (centres unmarked) [Compound 160]	0.316 µM	–
158 nM	CCc1cc2ccc(C(C)(C#N)CCOc3ccc(C#N)cc3)cc2[nH]c1=O (centres unmarked) [Compound 161]	0.316 µM	–
79.4 nM	CCc1cc2ccc(C(C)(C#N)Cc3cccc(CCC#N)c3)cc2[nH]c1=O (centres unmarked) [Compound 165]	1 µM	–

Reference: patent publication US8778966B2, “Quinolinone derivatives as PARP and tank inhibitors” (Janssen Pharmaceutica, NV, priority 2007, dated 2014)
